From patent US8314234B2, “Bicyclic pyrimidine kinase inhibitors” (Janssen Pharmaceutica N.V., priority 2006, dated 2012) come the findings set out here.

pIC50: −log10 of the molar value. A value given as a limit tells only on which side of the number the result lay.

The test system of assay [1] is HeLa cervical adenocarcinoma. Description: Cell Proliferation Inhibition Assay (14C-thymidine incorporation), HeLa. The note with it: Homo sapiens. Type of assay: cell-based. The text has this: (§1) The ability of a test compound to inhibit unregulated cell proliferation may be determined by measuring incorporation of ^14C-labelled thymidine into newly synthesized DNA within cell lines derived from carcinomas originating from several tissues. Accordingly, the anti-proliferative effect of a compound on cells with a variety of phenotypes may be determined.
(§2) Carcinoma cell lines include those such as HeLa cervical adenocarcinoma (American Type Culture Collection (ATCC), Virginia, Cat. #CCL-2), A375 malignant melanoma (ATCC CRL-1619), SK-OV-3 ovarian adenocarcinoma (ATCC HTB-77), HCT-116 colon carcinoma (CCL-247), PC-3 prostate adenocarcinoma (ATCC CRL-1435), and MDA-MB-231 (Xenogen Corp.)
(§3) The carcinoma cells are trypsinized and counted. The cells (3000-8000 count) are added to each well of a 96-well CytoStar tissue culture treated scintillating microplate (Amersham #RPNQ0160) in complete medium (100 μL) and the plate is then incubated in complete medium for 24 hrs at 37° C. in an inert atmosphere containing 5% CO2. Test compound (1 μL) in 100% DMSO is added to the plate test-wells with DMSO only added to control-wells. The plate is incubated in complete medium for a second 24 hr period at 37° C. in an atmosphere containing 5% CO2.
(§4) An aliquot of a solution of Methyl ^14C-thymidine (56 mC/mmol) (NEN #NEC568 or Amersham #CFA532) and complete medium (20 uL to provide 0.2 μCi/well) is then added to each well and the plate is incubated for a third 24 hr period at 37° C. in an atmosphere containing 5% CO2. The plate contents are then discarded, the plate is washed twice with PBS (200 μL) and then PBS (200 μL) is added to each well. The plate is sealed and the degree of methyl ^14C-thymidine incorporation is quantified on a Packard Top Count.
(Incorporation of labelled thymidine or its analogues reports DNA synthesis.)

The next assay has as its target T1, EGFR (Homo sapiens, UniProt P00533).
T1 construct: intracellular portion of EGFR started at nucleotide 2189 (corresponding to amino acid 667) and ended at the termination codon; made in house; host or cells: Sf9 insect cells (baculovirus)
The experiment in a line: EGFR Kinase Assay. The class given is biochemical. The note with it: for inhibition at 2 µM: test concentration of 2 μM. The text has this: The EGFR kinase used was a fusion of Glutathione-S-Transferase (GST) and a PCR amplified intracellular portion of EGFR (NM_005228). The intracellular portion of EGFR started at nucleotide 2189 (corresponding to amino acid 667) and ended at the termination codon. The portion was PCR amplified with primers that added the lambda attB sequences to each end, recombined into an entry vector, then into a GST destination vector (as described in Gateway Technologies Manual by Invitrogen Corporation, Carlsbad, Calif.).
The destination vector was recombined in the DH10BAC strain of bacteria to produce a bacmid. The bacmid was transfected into Sf9 cells and the supernatant containing the baculovirus was collected. The GSTEGFR protein was purified using large cultures of Sf9 cells infected with stock virus. After an appropriate period of time, the cells were collected and lysed. The GSTEGFR was then purified from the lysate on Glutathione-Sepharose columns (as described by Amersham Biosciences, Buckinghamshire, United Kingdom).
The EGFR substrate was prepared by biotinylating polyGluTyr (128 mg) (Sigma, St. Louis, Mo.) in a 1×PBS buffer incubated together with a 12-fold molar excess of Sulfo-NHS-LC-Biotin on ice for at least 2 hrs. The free biotin was separated from the biotinylated polyGluTyr on a gel filtration column.
A mixture of a 10× kinase buffer (500 mM Tris at pH 8.0, 100 mM Magnesium Chloride and 1 mM Sodium Vanadate), DTT (1 mM final from 500 mM stock), ATP (5 μM final from 10 mM stock), biotinylated polyGluTyr (10 μg/μL stock), γ-^33P ATP (10 μCi/μL stock) and water was added to each well (90 μL/well) of a Streptavidin Flashplate (Perkin Elmer, Wellesley, Mass.).
Test compound in 100% DMSO (2 μL) was added to the appropriate wells. Diluted GSTEGFR (1:300 dilution in 50 mM Tris at pH 8.0 and 0.1% bovine serum albumin) (10 μL) was added to the wells to initiate the reactions.
The plates were incubated at 30° C. for 1 hr with shaking. The reacted contents were removed and the plates were sequentially washed three times with a 1×PBS stop buffer (300 μL without Magnesium and Calcium) and 100 mM EDTA. After the final wash, the same stop buffer (200 μL) was added to the wells. The plates were then sealed and read on the TopCount scintillation counter.
Test compounds were assayed in triplicate at 16 concentrations at half-log dilutions starting at 200 uM. A maximum and minimum signal for the assay was determined on each plate. The percent inhibition of a test compound was calculated according to the formula
For a series of test concentrations, the IC50 was derived by graphing percent inhibition against the log of the concentrations tested for a given compound. The percent inhibition results are shown in Table 1 at a test concentration of 2 μM. For those compounds with an IC50, the IC50 value is shown in parentheses.

In the next assay the target is VEGFR2 (Rattus norvegicus, UniProt O08775). Description: VEGFR2 screening assay. The class given is biochemical. On the procedure: A kinase reaction mixture was prepared containing 50 mM Tris-HCl pH=8, 10 mM MgCl2, 0.1 mM […], 1 mM DTT, 10 μM ATP, 0.025 μM biotinylated histone-H1 peptide substrate and 0.2 μCuries per well ^33P-γ-ATP (2000-3000 Ci/mmol). 70 μL of the kinase reaction mixture was dispensed into the well of a streptavidin coated FlashPlate™ (Cat. #SMP103, NEN, Boston, Mass.).
Sequence of VEGFR2 (O08775 786-1343): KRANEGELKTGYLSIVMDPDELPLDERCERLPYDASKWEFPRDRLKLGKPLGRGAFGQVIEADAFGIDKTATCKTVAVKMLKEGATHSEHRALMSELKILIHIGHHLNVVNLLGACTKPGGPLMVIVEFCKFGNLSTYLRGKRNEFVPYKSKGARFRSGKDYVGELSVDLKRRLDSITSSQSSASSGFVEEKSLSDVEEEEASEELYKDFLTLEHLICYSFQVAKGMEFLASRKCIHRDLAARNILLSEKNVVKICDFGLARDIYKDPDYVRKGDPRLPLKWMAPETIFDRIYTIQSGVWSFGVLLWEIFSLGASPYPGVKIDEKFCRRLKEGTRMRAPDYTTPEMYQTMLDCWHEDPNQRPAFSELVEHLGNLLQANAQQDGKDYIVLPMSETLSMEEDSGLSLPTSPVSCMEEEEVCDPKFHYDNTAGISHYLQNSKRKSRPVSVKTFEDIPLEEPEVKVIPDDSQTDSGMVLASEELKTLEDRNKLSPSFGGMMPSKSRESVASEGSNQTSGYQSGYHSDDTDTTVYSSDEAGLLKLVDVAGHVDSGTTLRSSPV
(§5) Test compound stock in 100% DMSO (1 μL) was added to the wells resulting in a final concentration of 1% DMSO in the reaction with a 100 μL final reaction volume. Each enzyme was diluted in 50 mM Tris-HCl pH=8.0, 0.1% BSA and 30 μL was added to each well to initiate the reaction. The reaction was incubated for one hour at 30° C. At the end of the 1 hr incubation, the reaction was terminated by aspirating the mixture from the plate and washing the wells twice with PBS containing 100 mM EDTA. The biotinylated peptide substrate became immobilized on the Flashplate and the incorporation of ^33P-γ-ATP was measured by reading the plate on a scintillation counter. Inhibition of the enzymatic activity was measured by observing a reduced amount of ^33P-γ-ATP incorporated into the immobilized peptide.
The VEGF-R2 enzyme is a fusion protein containing a polyhistidine tag at the N terminus followed by amino acids 786 to 1343 of the rat VEGF-R2 kinase domain (Accession number U93306). The assay used 150 ng of the N-terminal biotinylated peptide biotin-[…]-amide SEQ ID NO: 2) (VEGF-R2) per well.
(§6) A maximum and minimum signal for the assay was determined on each plate. The percent inhibition of a test compound was calculated according to the formula: […]
For a series of test concentrations, the IC50 was derived by graphing percent inhibition against the log of the concentrations tested for a given compound with results shown in Table 2. For those compounds without an IC50, the inhibition values in percent are shown at a test concentration of 2 μM. The term “ND” means “not determined.”

The test system of another assay is HCT-116 colon carcinoma. The experiment in a line: Cell Proliferation Inhibition Assay (14C-thymidine incorporation), HCT-116. Type of assay: cell-based. The note with it: Homo sapiens.
Description: as §1, §2, §3, §4

The target of a further assay is T2, CDK1 (Homo sapiens, UniProt P06493).
T2 construct: purchased New England Biolabs, Beverly, Mass; 6020; host or cells: insect cells
T2 sequence (P06493 whole entry): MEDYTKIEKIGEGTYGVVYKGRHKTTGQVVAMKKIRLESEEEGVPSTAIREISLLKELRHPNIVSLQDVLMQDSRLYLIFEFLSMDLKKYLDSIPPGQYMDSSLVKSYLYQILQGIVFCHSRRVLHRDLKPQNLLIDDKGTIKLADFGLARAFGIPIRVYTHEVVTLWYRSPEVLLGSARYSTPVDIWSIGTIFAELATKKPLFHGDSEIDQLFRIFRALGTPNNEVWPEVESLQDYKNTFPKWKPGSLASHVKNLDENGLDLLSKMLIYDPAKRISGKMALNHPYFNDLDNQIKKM
T2 sequence (P14635 whole entry partner): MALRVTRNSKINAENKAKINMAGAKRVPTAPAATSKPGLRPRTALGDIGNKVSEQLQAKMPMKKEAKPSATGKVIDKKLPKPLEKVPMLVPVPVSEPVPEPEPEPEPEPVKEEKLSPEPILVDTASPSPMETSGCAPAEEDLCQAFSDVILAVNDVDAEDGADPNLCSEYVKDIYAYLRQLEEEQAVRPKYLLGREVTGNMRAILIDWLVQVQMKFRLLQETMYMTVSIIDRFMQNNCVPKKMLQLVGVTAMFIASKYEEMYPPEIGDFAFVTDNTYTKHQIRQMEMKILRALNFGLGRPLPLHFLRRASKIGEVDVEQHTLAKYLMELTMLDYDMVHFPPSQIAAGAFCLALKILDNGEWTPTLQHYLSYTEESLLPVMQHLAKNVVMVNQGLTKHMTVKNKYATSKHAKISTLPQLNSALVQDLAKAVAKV
Description: CDK-1 screening assay. The class given is biochemical. On the procedure:
(§7) 70 μL of the kinase reaction mixture was dispensed into the well of a streptavidin coated FlashPlate™ (Cat. #SMP103, NEN, Boston, Mass.).
as §5, §6
(§8) The term “ND” means “not determined.”

Another assay relates to A375 malignant melanoma. Description: Cell Proliferation Inhibition Assay (14C-thymidine incorporation), A375. Type of assay: cell-based. The note with it: Homo sapiens, A-375.
Description: as §1, §2, §3, §4

In a further assay the target is T3, CDK2 (Homo sapiens, UniProt P24941).
T3 construct: purchased Upstate Biotech, Lake Placid, N.Y
Description: CDK-2 screening assay. The class given is biochemical. How it is done:
as §7, §5
The CDK2 enzyme in complex with cyclin A is commercially available (Upstate Biotech, Lake Placid, N.Y.).
as §6, §8

T1 sequence (P00533 669-1210 limits assumed): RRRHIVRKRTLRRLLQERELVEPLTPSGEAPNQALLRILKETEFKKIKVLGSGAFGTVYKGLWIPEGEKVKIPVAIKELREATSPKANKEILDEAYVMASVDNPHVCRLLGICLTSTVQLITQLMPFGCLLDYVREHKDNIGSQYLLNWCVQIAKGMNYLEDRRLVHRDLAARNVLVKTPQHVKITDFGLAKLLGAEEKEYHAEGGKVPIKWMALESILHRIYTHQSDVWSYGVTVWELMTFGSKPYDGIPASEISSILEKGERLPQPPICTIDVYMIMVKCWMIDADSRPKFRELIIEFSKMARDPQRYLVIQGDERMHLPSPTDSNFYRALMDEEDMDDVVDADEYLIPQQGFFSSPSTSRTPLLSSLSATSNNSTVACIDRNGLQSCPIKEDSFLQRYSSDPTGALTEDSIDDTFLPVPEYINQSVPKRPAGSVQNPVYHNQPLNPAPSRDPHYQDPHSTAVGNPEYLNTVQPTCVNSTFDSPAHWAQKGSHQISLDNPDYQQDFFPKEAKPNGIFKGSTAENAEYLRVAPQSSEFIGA

A word on the pIC50: it is −log10 of the IC50, conventionally taken in molar units. One may read the inhibition as the relative decrease from the control value, in per cent. For the molecule `NS(=O)(=O)c1cccc(Nc2nc(Nc3cccc(S(N)(=O)=O)c3)c3cn[nH]c3n2)c1` [Cpd 22, N^4,N^6-bis-[3-(amino-sulfonyl)-phenyl]-1H-pyrazolo[3,4-d]pyrimidine-4,6-diamine], the pIC50 in assay [1] is 4.00; on EGFR (read-out: EGFR IC50 (value in parentheses)), 6.70; against VEGFR2 it was 6.00; in the assay on HCT-116 colon carcinoma, 4.00; at CDK1 it was 6.32; in the assay on A375 malignant melanoma, 4.00. Also, at EGFR, the inhibition at 2 µM was 66.7%.
With `O=S(=O)(NCCO)c1ccc(Nc2nc(Nc3ccccc3)c3cnoc3n2)cc1` [Cpd 20, N-(2-hydroxy-ethyl)-4-(4-phenylamino-isoxazolo[5,4-d]pyrimidin-6-ylamino)-benzenesulfonamide], the pIC50 against CDK2 was 5.36; in assay [1], 4.60; on VEGFR2, 4.64; in the assay with HCT-116 colon carcinoma, 4.00; against CDK1 it was less than 4.00; with A375 malignant melanoma it was 4.00. Also, the inhibition at 2 µM against EGFR stood at 26%.
With `O=S(=O)(NCCO)c1ccc(Nc2nc(Nc3ccc(C(F)(F)F)cc3)c3cn[nH]c3n2)cc1` [Cpd 10, N-(2-hydroxy-ethyl)-4-[4-(4-trifluoromethyl-phenylamino)-1H-pyrazolo[3,4-d]pyrimidin-6-ylamino]-benzenesulfonamide], the pIC50 against CDK2 was 6.42; in assay [1], 5.47; at VEGFR2, 5.46; in the assay on HCT-116 colon carcinoma, 5.00; against CDK1 it was 5.82; with A375 malignant melanoma it was 6.00. On EGFR, the inhibition at 2 µM was 31%.
`O=S(=O)(NCCO)c1ccc(Nc2nc(Nc3ccc(S(=O)(=O)NCCO)cc3)c3cnn(C4CCCCC4)c3n2)cc1` [Cpd 17, 1-cyclohexyl-N^4,N^6-bis-{4-[(2-hydroxy-ethyl)-amino-sulfonyl]-phenyl}-1H-pyrazolo[3,4-d]pyrimidine-4,6-diamine]: the pIC50 is 5.41 against CDK2; 4.00 in assay [1]; 4.05 on VEGFR2; 4.00 with HCT-116 colon carcinoma; 4.92 on CDK1; 4.00 in the assay on A375 malignant melanoma. In addition, the inhibition at 2 µM at EGFR turned out to be 22%.
Turning to `NS(=O)(=O)c1ccc(Nc2nc(Nc3ccc4[nH]ncc4c3)nc3[nH]ncc23)cc1` [Cpd 12, 4-[6-(1H-indazol-5-ylamino)-1H-pyrazolo[3,4-d]pyrimidin-4-ylamino]-benzenesulfonamide], the pIC50 at CDK2 was 6.36; in assay [1] it was 4.44; against VEGFR2, 6.27; in the assay with HCT-116 colon carcinoma it was 5.00; against CDK1 it was 6.25; in the assay with A375 malignant melanoma it was 4.07. In addition, the inhibition at 2 µM at EGFR was determined as 44%.
Consider `CC(=O)n1ncc2c(Nc3ccc(S(=O)(=O)NCCO)cc3)nc(Nc3ccc(S(=O)(=O)NCCO)cc3)nc21` [Cpd 21, 1-acetyl-N^4,N^6-bis-{4-[(2-hydroxy-ethyl)-amino-sulfonyl]-phenyl}-1H-pyrazolo[3,4-d]pyrimidine-4,6-diamine], for which the pIC50 at CDK2 is 6.27; in assay [1], 4.00; at VEGFR2, 4.88; with HCT-116 colon carcinoma it was 4.00; at CDK1, 5.73; with A375 malignant melanoma it was 4.00. In addition, on EGFR, the inhibition at 2 µM is 53%.
`c1cc2cc(Nc3nc(Nc4ccc5[nH]ccc5c4)c4cn[nH]c4n3)ccc2[nH]1` [Cpd 13, N^4,N^6-bis-(1H-indol-5-yl)-1H-pyrazolo[3,4-d]pyrimidine-4,6-diamine]: the pIC50 against CDK2 is 6.31; in assay [1] it was 5.40; against VEGFR2 it was 5.43; in the assay on HCT-116 colon carcinoma, 5.59; against CDK1, 5.59; in the assay on A375 malignant melanoma it was 5.72. The inhibition at 2 µM against EGFR is -4%.
With `O=S(=O)(NCCO)c1ccc(Nc2nc(Nc3ccc(S(=O)(=O)NCCO)cc3)c3cnoc3n2)cc1` [Cpd 19, N^4,N^6-bis-{4-[(2-hydroxy-ethyl)-amino-sulfonyl]-phenyl}-isoxazolo[5,4-d]pyrimidine-4,6-diamine], the pIC50 against CDK2 was 5.04; in assay [1] it was 4.00; at VEGFR2, 4.12; in the assay on HCT-116 colon carcinoma it was 4.00; at CDK1, less than 4.00; in the assay on A375 malignant melanoma, 4.00. For the same molecule, the inhibition at 2 µM on EGFR was 12%.
Regarding `NS(=O)(=O)c1ccc(Nc2nc(Nc3ccccc3)nc3[nH]ncc23)cc1` [Cpd 6, 4-(6-phenylamino-1H-pyrazolo[3,4-d]pyrimidin-4-ylamino)-benzenesulfonamide], the pIC50 is 5.95 against CDK2, 5.37 on VEGFR2 and 5.63 at CDK1. Moreover, the inhibition at 2 µM at EGFR stood at 40%.
